Experimental data taken from article PMC7002685, “Inhibition of vascular calcification by inositol phosphates derivatized with ethylene glycol oligomers” (Nature Communications, 2020).

Experiment: Serum PTH and FGF-23 in adenine model
Type: in vivo, rat
Text: However, clearly the bone mineralization may be affected by the mode of action. The effects of the compound on the bone is not sufficiently investigated, and this limitation not sufficiently discussed, since similar to the adenin model, CKD patients may be the prime patient population for treatment. The bone structure should be documented by µCT. Is there an effect of the compound on the mechanical properties? Am I missing the effects of the compound on bone in healthy animals – this would seem decisive?
In response to the reviewer’s comment we investigated the (3D) bone structure of vehicle and (OEG2)2-IP4 treated CKD animals by µCT analysis and compared the results to that of bone samples from control (non-CKD) male Wistar rats of the same age. […]
because of (1) ethical considerations (aiming to limit the number of animals), (2) the primary end-point of the study was to evaluate the effect of (OEG2)2-IP4 on the development of vascular calcification, which was of no relevance for control (non-CKD) animals as they do not develop vascular calcification. […]
In response to the reviewer’s comment we measured concentrations of PTH and FGF-23 in the serum of CKD animals of vehicle and (OEG2)2-IP4 groups both at baseline and at sacrifice. […]

COCCOCCO[C@@H]1[C@@H](OP(=O)(O)O)[C@H](OCCOCCOC)[C@@H](OP(=O)(O)O)[C@@H](OP(=O)(O)O)[C@H]1OP(=O)(O)O [(OEG2)2-IP4, 4,6-Di-O-(methoxy-diethyleneglycol)-myo-inositol-1,2,3,5-tetrakis(phosphate)]
serum PTH levels (5, 15, 50 mg/kg): did not differ between treatment groups
serum FGF-23 compared to vehicle (lowest (5 mg/kg) dose): significantly higher
